From US9199981B2 (NOVARTIS AG, priority 2011, dated 2015)

target: c-kit (Homo sapiens (Human), UniProt P10721); assay: Mo7e cell proliferation assay (SCF dependent proliferation); type: cell-based; conditions: Mo7e cells stimulated with human recombinant SCF, 48 hours, 1% FBS
Protocol: Compounds of Formula (I) and Formula (II) provided herein were assayed to measure their capacity to inhibit c-kit and PDGFR kinases using the appropriate assay described below: c-Kit inhibition was evaluated using the Mo7e cell proliferation assay, and PDGFR inhibition was evaluated using the Rat A10 cell proliferation assay and the Human TG/HA-VSMC cell proliferation assay.
Mo7e Cell Proliferation Assay
The compounds of Table 1 and Table 2 were tested for inhibition of SCF dependent proliferation using human Mo7e cells which endogenously express c-kit in a 384 well format. […] After 48 hours of incubation at 37° C., cell viability was measured by adding 25 uL of CellTiter Glo (Promega) to the cells and the luminescence was measured by a CLIPR CCD camera (Molecular Devices).
The IC50 value is given as that concentration of the test compound in question that provoke a response halfway between the baseline and maximum responses.

c-kit, sequence (P10721 26-976): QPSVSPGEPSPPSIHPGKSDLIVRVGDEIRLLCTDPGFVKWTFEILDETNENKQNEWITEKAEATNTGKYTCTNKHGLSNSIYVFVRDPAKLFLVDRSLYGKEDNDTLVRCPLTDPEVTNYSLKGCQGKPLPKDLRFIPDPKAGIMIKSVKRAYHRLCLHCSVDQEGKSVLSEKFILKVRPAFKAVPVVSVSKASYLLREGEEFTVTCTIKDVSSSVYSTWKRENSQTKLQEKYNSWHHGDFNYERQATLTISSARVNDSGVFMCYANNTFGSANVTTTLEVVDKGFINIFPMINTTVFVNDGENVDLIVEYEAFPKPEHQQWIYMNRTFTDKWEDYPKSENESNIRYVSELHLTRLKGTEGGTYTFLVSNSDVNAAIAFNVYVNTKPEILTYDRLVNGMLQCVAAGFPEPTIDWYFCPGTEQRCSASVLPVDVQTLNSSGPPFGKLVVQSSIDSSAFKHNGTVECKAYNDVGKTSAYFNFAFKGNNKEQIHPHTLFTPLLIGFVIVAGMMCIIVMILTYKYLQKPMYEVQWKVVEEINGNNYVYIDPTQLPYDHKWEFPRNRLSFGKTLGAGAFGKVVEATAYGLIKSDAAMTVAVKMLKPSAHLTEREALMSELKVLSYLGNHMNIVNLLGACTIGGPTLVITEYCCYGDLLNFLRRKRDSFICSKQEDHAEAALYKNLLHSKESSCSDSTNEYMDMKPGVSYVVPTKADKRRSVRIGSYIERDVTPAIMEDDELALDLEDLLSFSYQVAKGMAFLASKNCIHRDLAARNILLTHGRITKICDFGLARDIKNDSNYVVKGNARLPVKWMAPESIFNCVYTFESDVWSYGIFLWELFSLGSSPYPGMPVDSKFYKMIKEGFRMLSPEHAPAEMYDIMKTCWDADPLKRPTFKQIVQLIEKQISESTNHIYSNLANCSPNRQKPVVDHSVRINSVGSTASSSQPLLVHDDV

SMILES | IC50 [nM]
Cc1ccc(-c2noc(CNC(=O)OC3(C)CC3)n2)cc1NC(=O)c1cnc2ccccn12 [F26] | 58
COC(=O)NC1(c2nc(-c3ccc(C)c(NC(=O)c4cnc5ccccn45)c3)no2)CCC1 [F27] | 69
Cc1ccc(-c2noc(C3(NS(C)(=O)=O)CCC3)n2)cc1NC(=O)c1cnc2ccccn12 [F28] | 95
Cc1ccc(-c2noc(C3(N(C)C)CC3)n2)cc1NC(=O)c1cnc2ccccn12 [F29, N-(5-(5-(1-(dimethylamino)cyclopropyl)-1,2,4-oxadiazol-3-yl)-2-methylphenyl)imidazo[1,2-a]pyridine-3-carboxamide] | 58
Cc1ccc(-c2noc(C3CC(O)(C4CC4)C3)n2)cc1NC(=O)c1cnc2ccccn12 (centres unmarked) [F31, N-(5-(5-(3-cyclopropyl-3-hydroxycyclobutyl)-1,2,4-oxadiazol-3-yl)-2-methylphenyl)imidazo[1,2-a]pyridine-3-carboxamide] | 50
Cc1ccc(-c2noc(C3CC(=CCCO)C3)n2)cc1NC(=O)c1cnc2ccccn12 (centres unmarked) [F32, N-(5-(5-(3-(3-hydroxypropylidene)cyclobutyl)-1,2,4-oxadiazol-3-yl)-2-methylphenyl)imidazo[1,2-a]pyridine-3-carboxamide] | 25
Cc1ccc(-c2noc(C3CC4(CCCO4)C3)n2)cc1NC(=O)c1cnc2ccccn12 (centres unmarked) [F33] | 88
Cc1ccc(-c2noc(C3CC(F)C3)n2)cc1NC(=O)c1cnc2ccccn12 (centres unmarked) [F36, N-(5-(5-(3-fluorocyclobutyl)-1,2,4-oxadiazol-3-yl)-2-methylphenyl)imidazo[1,2-a]pyridine-3-carboxamide] | 28
Cc1ccc(-c2noc(C3CC(F)(F)C3)n2)cc1NC(=O)c1cnc2ccc(CO)cn12 [F37, N-(5-(5-(3,3-difluorocyclobutyl)-1,2,4-oxadiazol-3-yl)-2-methylphenyl)-6-(hydroxymethyl)imidazo[1,2-a]pyridine-3-carboxamide] | 60
Cc1ccc(-c2noc(C3CC(F)(F)C3)n2)cc1NC(=O)c1cnc2ccc(COCCO)cn12 [F38] | 25
COCc1ccc2ncc(C(=O)Nc3cc(-c4noc(C5CC(F)(F)C5)n4)ccc3C)n2c1 [F39] | 37
Cc1ccc(-c2noc(C3CC(n4cccn4)C3)n2)cc1NC(=O)c1cnc2ccccn12 (centres unmarked) [F45, N-(5-(5-(3-(1H-pyrazol-1-yl)cyclobutyl)-1,2,4-oxadiazol-3-yl)-2-methylphenyl)imidazo[1,2-a]pyridine-3-carboxamide] | 71
Cn1cc(-c2ccc3ncc(C(=O)Nc4cc(-c5noc(C6CC(F)(F)C6)n5)ccc4F)n3c2)cn1 [F47] | 33
Cc1ccc(-c2noc(C3CC(F)(F)C3)n2)cc1NC(=O)c1cnc2cc(C3CCN(S(C)(=O)=O)CC3)ccn12 [F49, N-(5-(5-(3,3-difluorocyclobutyl)-1,2,4-oxadiazol-3-yl)-2-methylphenyl)-7-(1-(methylsulfonyl)piperidin-4-yl)imidazo[1,2-a]pyridine-3-carboxamide] | 33
Cc1ccc(-c2noc(C3CC(F)(F)C3)n2)cc1NC(=O)c1cnc2ccc(-c3cnn(CCN4CCOCC4)c3)cn12 [F50] | 26
O=C(Nc1cc(-c2noc(C3CC(F)(F)C3)n2)ccc1F)c1cnc2ccc(-c3cnn(CCN4CCOCC4)c3)cn12 [F51] | 85

SMILES | IC50 [nM]
Cc1ccc(-c2noc(C3CC(F)(F)C3)n2)cc1NC(=O)c1cnc2ccc(COCC(F)(F)F)cn12 [F52] | 79
CC(=O)CCc1ccc2ncc(C(=O)Nc3cc(-c4noc(C5CC(F)(F)C5)n4)ccc3C)n2c1 [F53, N-(5-(5-(3,3-difluorocyclobutyl)-1,2,4-oxadiazol-3-yl)-2-methylphenyl)-6-(3-oxobutyl)imidazo[1,2-a]pyridine-3-carboxamide] | 45
Cc1ccc(-c2noc(C3CC(F)(F)C3)n2)cc1NC(=O)c1cnc2ccc(CCC(C)(C)O)cn12 [F54, N-(5-(5-(3,3-difluorocyclobutyl)-1,2,4-oxadiazol-3-yl)-2-methylphenyl)-6-(3-hydroxy-3-methylbutyl)imidazo[1,2-a]pyridine-3-carboxamide] | 31
Cc1ccc(-c2noc(CCC3(O)CC3)n2)cc1NC(=O)c1cnc2ccccn12 [F55a, N-(5-(5-(2-(1-hydroxycyclopropyl)ethyl)-1,2,4-oxadiazol-3-yl)-2-methylphenyl)imidazo[1,2-a]pyridine-3-carboxamide] | 92
Cc1ccc(-c2noc(C3CCC3)n2)cc1NC(=O)c1cnc2ccccn12 [F57] | 23
Cc1ccc(-c2noc(C3CC(C)(C)C3)n2)cc1NC(=O)c1cnc2ccccn12 [F58] | 20
Cc1nnc(-c2ccc3ncc(C(=O)Nc4cc(-c5noc(C6CC(F)(F)C6)n5)ccc4F)n3c2)[nH]1 [F61, N-(5-(5-(3,3-difluorocyclobutyl)-1,2,4-oxadiazol-3-yl)-2-fluorophenyl)-6-(5-methyl-4H-1,2,4-triazol-3-yl)imidazo[1,2-a]pyridine-3-carboxamide] | 154
Cc1ccc(-c2noc(C3CC(F)(F)C3)n2)cc1NC(=O)c1cnc2ccc(CCN3CCN(C)CC3)cn12 [F63, N-(5-(5-(3,3-difluorocyclobutyl)-1,2,4-oxadiazol-3-yl)-2-methylphenyl)-6-(2-(4-methylpiperazin-1-yl)ethyl)imidazo[1,2-a]pyridine-3-carboxamide] | 82
Cc1ccc(-c2noc(C3CC3(F)F)n2)cc1NC(=O)c1cnc2ccccn12 (centres unmarked) [F64, N-(5-(5-(2,2-difluorocyclopropyl)-1,2,4-oxadiazol-3-yl)-2-methylphenyl)imidazo[1,2-a]pyridine-3-carboxamide] | 52
Cc1cc(C)c(-c2noc(C3CC(F)(F)C3)n2)cc1NC(=O)c1cnc2ccccn12 [F67] | 49
Cc1ccc(-c2noc(C3CC(F)(F)C3)n2)cc1NC(=O)c1cnc2cc(N3CCOC3=O)ccn12 [F68] | 39
Cc1ccc(-c2noc(C3CCCC3)n2)cc1NC(=O)c1cnc2ccccn12 [F74] | 33
Cc1ccc(-c2noc(C3CC(F)(F)C3)n2)cc1NC(=O)c1cnc2cc(N3CCCC3=O)ccn12 [F76] | 37
Cc1ccc(-c2noc(C3CC(F)(F)C3)n2)cc1NC(=O)c1cnc2ccc(COCC(F)F)cn12 [F77] | 32
Cc1nnc(-c2ccc3ncc(C(=O)Nc4cc(-c5noc(C6CC(F)(F)C6)n5)ccc4C)n3c2)[nH]1 [F79, N-(5-(5-(3,3-difluorocyclobutyl)-1,2,4-oxadiazol-3-yl)-2-methylphenyl)-6-(5-methyl-1H-1,2,4-triazol-3-yl)imidazo[1,2-a]pyridine-3-carboxamide] | 55

The next compounds have a lower IC50 than those just listed; values first:

IC50 [nM] | SMILES
13 | Cc1ccc(-c2noc(C3CC(O)(C(F)(F)F)C3)n2)cc1NC(=O)c1cnc2ccccn12 (centres unmarked) [F25, N-(5-(5-(3-hydroxy-3-(trifluoromethyl)cyclobutyl)-1,2,4-oxadiazol-3-yl)-2-methylphenyl)imidazo[1,2-a]pyridine-3-carboxamide]
16 | C=C1CC(c2nc(-c3ccc(C)c(NC(=O)c4cnc5ccccn45)c3)no2)C1 [F30]
16 | Cc1ccc(-c2noc(CNC3CC(F)(F)C3)n2)cc1NC(=O)c1cnc2ccccn12 [F34]
3 | Cc1ccc(-c2noc(COC3CC(F)(F)C3(F)F)n2)cc1NC(=O)c1cnc2ccccn12 (centres unmarked) [F35]
9 | Cc1ccc(-c2noc(C3CC(F)(F)C3)n2)cc1NC(=O)c1cnc2ccc(-c3cn[nH]c3)cn12 [F40, N-(5-(5-(3,3-difluorocyclobutyl)-1,2,4-oxadiazol-3-yl)-2-methylphenyl)-6-(1H-pyrazol-4-yl)imidazo[1,2-a]pyridine-3-carboxamide]
11 | Cc1ccc(-c2noc(C3CC(F)(F)C3)n2)cc1NC(=O)c1cnc2ccc(-c3cnn(CCO)c3)cn12 [F41]
7 | Cc1ccc(-c2noc(C3CC(F)(F)C3)n2)cc1NC(=O)c1cnc2ccc(-c3cnn(C)c3)cn12 [F42]
12 | Cc1ccc(-c2noc(C3CC(F)(F)C3)n2)cc1NC(=O)c1cnc2ccc(-c3ccn(C)n3)cn12 [F43]
6 | Cc1ccc(-c2noc(C3CC(F)(F)C3)n2)cc1NC(=O)c1cnc2ccc(-c3cnn(CC(C)(C)O)c3)cn12 [F44]
13 | Cc1ccc(-c2noc(C3CC(F)(F)C3)n2)cc1NC(=O)c1cnc2ccc(-c3cscn3)cn12 [F46]
16 | CC(C)(O)Cn1cc(-c2ccc3ncc(C(=O)Nc4cc(-c5noc(C6CC(F)(F)C6)n5)ccc4F)n3c2)cn1 [F48]
7 | Cc1ccc(-c2noc(C3CC(F)(F)C3)n2)cc1NC(=O)c1cnc2cc(N3CCOCC3)ccn12 [F59, N-(5-(5-(3,3-difluorocyclobutyl)-1,2,4-oxadiazol-3-yl)-2-methylphenyl)-7-morpholinoimidazo[1,2-a]pyridine-3-carboxamide]
13 | Cc1ccc(-c2noc(C3CC(F)(F)C3)n2)cc1NC(=O)c1cnc2cc(-c3c[nH]nn3)ccn12 [F65, N-(5-(5-(3,3-difluorocyclobutyl)-1,2,4-oxadiazol-3-yl)-2-methylphenyl)-7-(1H-1,2,3-triazol-4-yl)imidazo[1,2-a]pyridine-3-carboxamide]
16 | Cc1ccc(-c2noc(C3CC(F)(F)C3)n2)cc1NC(=O)c1cnc2cc(-c3cn(CCO)nn3)ccn12 [F66, N-(5-(5-(3,3-difluorocyclobutyl)-1,2,4-oxadiazol-3-yl)-2-methylphenyl)-7-(1-(2-hydroxyethyl)-1H-1,2,3-triazol-4-yl)imidazo[1,2-a]pyridine-3-carboxamide]
17 | Cc1ccc(-c2noc(C3CC4(CC(=O)C4)C3)n2)cc1NC(=O)c1cnc2ccccn12 [F75, N-(2-methyl-5-(5-(6-oxospiro[3.3]heptan-2-yl)-1,2,4-oxadiazol-3-yl)phenyl)imidazo[1,2-a]pyridine-3-carboxamide]
19 | [2H]C([2H])([2H])c1ccn2c(C(=O)Nc3cc(-c4noc(C5CC(F)(F)C5)n4)ccc3C)cnc2c1 [F80]
